These results are taken from US11779602B2, “Methods of use for CAR T cells” (ENDOCYTE, INC., priority 2018, dated 2023).

SMILES strings stand for the structures.

The subject of series [1] is FR+ cell lines (MDA-MB-231, KB, HOS-FRα, THP1-FRβ, OV90). The series is described as follows: Co-culture at 10 nM EC17, varying E/T ratios: specific lysis and Th1 cytokines. The class given is cell-based, human. Particulars: 10 nM EC17, ≥1:1 E/T ratios, 48 hours. The method, then:
(§1) After 24 hours of co-culture, supernatants were harvested to determine tumor cell killing. To study the kinetics of T cell activation and FR correlation in vitro (FIGS. 60A-L), co-cultures were carried out in FR+/− cell lines at varying E/T ratios (1:27, 1:9, 1:3, 1:1, 3:1) in the continuous presence of 10 nM EC17. The kinetics of tumor cell killing were quantified after 16 and 48 hours of co-culture. Meanwhile, a portion of the supernatants was taken after 44 hours of co-culture for measurement of IFNγ, IL-2 and TNFα. Using Promega's CytoTox 96® LDH assay kit, target cell killing was quantified and expressed as specific lysis (%) which was normalized to basal levels in the absence of EC17 at defined E/T ratios. The LEGENDplex™ human Th1 cytokine panel (BioLegend, San Diego, Calif.) was used to determine CAR-T cell derived cytokines.
Specific lysis (%) was quantified after 16 and 48 hours of co-culture, and Th1 cytokines (IFNγ, IL-2, TNFα) in culture media were measured after 44 hours of co-culture. […] It generally took a longer time (48 hours) and a higher E/T ratio (≥1:1) to see significant activity in the lowest FR-expressing OV90 cells (FIGS. 60A-G). The high FR-expressing KB cells responded […] to cause significant cell death (FIG. 60F). […]

Another series has as its system MDA-MB-231 tumor. The series is described as follows: Kinetics of CAR-T cell expansion and tumor uptake in MDA-MB-231 tumor bearing mice. Format: in vivo. The method, then:
When the tumor sizes averaged at ˜350±60 mm^3 on day 2, up to […] of EC17 at 500 nmol/kg were given on days 2, 9, 16, 23, and 30. For ex-vivo analysis, 3 animals were taken before the next EC17 dose on days 9, 16, 23, and 30 for a total of 4 collections. For comparison, the same EC17 dose was given to 3 CAR-T mice that had ˜4.4× larger tumor sizes on day 2 (˜1555±79 mm^3). For each collection, fresh blood and tumor samples (if available) were analyzed for the presence of human CD3ε+EGFRt+ CAR-T cells by flow cytometry.
The dynamic interplay between EC17 and CAR-T cells in vivo was further analyzed using MDA-MB-231 tumor model, which was previously found to be among the highest FR expressing tumors at 103±15 pmol/mg membrane protein using a ^3H-FA-based radioligand binding assay. […] Seven days following a single EC17 dose (i.e., study day 9), human CD3ε+EGFRt+ CAR-T cells were detected in the blood of mice, with elevated numbers circulating in mice bearing larger tumors (FIGS. 62B-E). […]
For CAR-T cell analysis in the circulation, plasma was removed from a predetermined volume of whole blood collected into tubes containing ethylenediaminetetraacetic acid anticoagulant. […] A minimum of 20,000 propidium iodide negative live cell events were collected on the Gallios flow cytometer and analyzed with the Kaluza software, version 2.1 (Beckman Coulter, Brea, Calif.). […]

In the next series the test system is FR-negative HOS-143b. The series is described as follows: Co-culture at 10 nM EC17, varying E/T ratios: specific lysis. Format: cell-based, human. The note with it: 10 nM EC17, 48 hours. The method, then:
as §1
Specific lysis (%) was quantified after 16 and 48 hours of co-culture, and Th1 cytokines (IFNγ, IL-2, TNFα) in culture media were measured after 44 hours of co-culture. […] It generally took a longer time (48 hours) and a higher E/T ratio (≥1:1) to see significant activity in the lowest FR-expressing OV90 cells (FIGS. 60A-G). The high FR-expressing KB cells responded […] to cause significant cell death (FIG. 60F).

Consider `NC1=NC2N=CC(CNc3ccc(C(=O)N[C@@H](CCC(=O)NCCNC(=S)Nc4ccc(-c5c6ccc(=O)cc-6oc6cc(O)ccc56)c(C(=O)O)c4)C(=O)O)cc3)=NC2C(=O)N1` (stereo partly shown) [EC17, FA-(γ)-ethylenediamine-FITC], for which the results for the specific lysis response result (in series [1]; with FR-negative HOS-143b) were “all FR+ cancer cells responded after 48 hours of co-culture” and “essentially unharmed”, respectively. In the series with MDA-MB-231 tumor (EC17 500 nmol/kg weekly, ~4.8 million E2-CAR-T cells), the “onset of tumor response” value is “started to respond after the second EC17 dose”. Further, in the series with MDA-MB-231 tumor (after EC17 administration, especially after the third dose), the body weight loss result was “mild body weight loss”.
